This note sets out measurements from US8722849B2, “Polypeptides” (Novo Nordisk A/S, priority 2011, dated 2014).

Data set [1] in a line: Assay (IV) determination of solubility. In kind it is physicochemical. A digest of the protocol: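 Polypeptide in water (~500 nmol/ml stock) was mixed 1:1 with 100 mM buffers from pH 3.0 to 8.0 (glycylglycine pH 3.0–5.0; bistrispropane pH 6.0–8.0). After 18 hours at room temperature, samples were centrifuged and the polypeptide remaining in solution was quantified by HPLC.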

Data set [2] deals with T1, rat amylin 3(a) receptor (rat calcitonin(a) receptor + rat RAMP3) (Rattus norvegicus, UniProt P32214+Q9JJ73).
T1 construct: expressed in transfected cells; host or cells: BHK tk'ts 13
T1 sequence (P32214 25-479 isoform P32214-2 limits assumed): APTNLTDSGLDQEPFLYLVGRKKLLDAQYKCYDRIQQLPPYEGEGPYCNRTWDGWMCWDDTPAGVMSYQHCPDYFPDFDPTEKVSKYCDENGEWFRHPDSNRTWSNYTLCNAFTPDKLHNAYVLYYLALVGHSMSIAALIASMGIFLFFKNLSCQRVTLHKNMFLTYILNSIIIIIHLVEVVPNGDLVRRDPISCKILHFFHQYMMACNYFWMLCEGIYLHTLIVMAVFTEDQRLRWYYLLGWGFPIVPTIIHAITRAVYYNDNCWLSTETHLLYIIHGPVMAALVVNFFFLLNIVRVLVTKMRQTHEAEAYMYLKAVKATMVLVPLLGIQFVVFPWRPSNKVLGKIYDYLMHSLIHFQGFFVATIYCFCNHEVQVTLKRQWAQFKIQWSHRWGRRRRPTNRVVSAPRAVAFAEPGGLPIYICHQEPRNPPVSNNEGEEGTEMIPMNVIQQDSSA
T1 sequence (Q9JJ73 23-147 partner): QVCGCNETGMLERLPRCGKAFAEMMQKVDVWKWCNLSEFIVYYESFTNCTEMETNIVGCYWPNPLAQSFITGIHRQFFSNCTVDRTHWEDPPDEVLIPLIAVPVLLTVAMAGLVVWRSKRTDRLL
Briefly: Assay (II)b functional cAMP FlashPlate assay, rat amylin receptor. In kind it is cell-based. The following applies: Table 11. In outline: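 BHK tk'ts 13 cells transiently transfected with rat calcitonin(a) receptor, alone or with rat RAMP3 (amylin 3(a)), were stimulated 24 hours later with sample for 30 min in buffer containing IBMX. cAMP measured by competitive radioactive FlashPlate assay, scintillation read after 3 h detection incubation.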

Data set [3] concerns the target T2, human amylin receptor (amylin 3(a) receptor: human calcitonin receptor + RAMP-3) (Homo sapiens, UniProt O60896+P30988).
T2 construct: expressed in transfected cells; host or cells: BHK570
T2 sequence (P30988 25-474): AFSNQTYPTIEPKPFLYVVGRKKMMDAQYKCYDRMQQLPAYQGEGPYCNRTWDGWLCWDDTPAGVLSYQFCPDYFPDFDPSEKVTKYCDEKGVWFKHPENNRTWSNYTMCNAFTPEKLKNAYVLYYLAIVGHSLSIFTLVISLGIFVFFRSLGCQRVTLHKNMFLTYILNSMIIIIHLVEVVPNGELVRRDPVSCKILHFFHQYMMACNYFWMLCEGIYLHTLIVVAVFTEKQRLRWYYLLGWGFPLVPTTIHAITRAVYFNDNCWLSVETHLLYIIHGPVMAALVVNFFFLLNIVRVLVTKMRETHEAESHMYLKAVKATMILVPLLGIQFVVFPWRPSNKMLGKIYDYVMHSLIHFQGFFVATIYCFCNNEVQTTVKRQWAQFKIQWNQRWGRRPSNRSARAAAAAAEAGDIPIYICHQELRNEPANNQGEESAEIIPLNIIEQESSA
T2 sequence (O60896 24-148 partner): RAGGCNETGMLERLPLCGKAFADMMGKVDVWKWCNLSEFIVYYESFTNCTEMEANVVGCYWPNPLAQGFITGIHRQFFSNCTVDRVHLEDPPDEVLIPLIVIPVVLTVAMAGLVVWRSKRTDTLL
Briefly: Assay (II)a functional CRE-luciferase assay, human amylin receptor. The class given is cell-based. The following applies: Table 2; BHK amylin 3(a)-receptor/CRE-luc cells.

Data set [4] addresses T3, human calcitonin receptor (Homo sapiens, UniProt P30988).
T3 construct: expressed in transfected cells; host or cells: BHK570
T3 sequence (P30988 25-474): T2 sequence (P30988 25-474)
Briefly: Assay (II)a functional CRE-luciferase assay, human calcitonin receptor. In kind it is cell-based. The note with it: Table 7; human calcitonin (CTa) receptor.

[5] abbreviates: bistrispropane buffer, pH 6, pH 6.0, read-out: Solubility pH 6.0.
Where [6] appears, read: bistrispropane buffer, pH 6.5, pH 6.5, read-out: Solubility pH 6.5.
Where [7] appears, read: bistrispropane buffer, pH 7, pH 7.0, 18 hours at room temperature, Table 3, read-out: Solubility pH 7.0.
Where [8] appears, read: bistrispropane buffer, pH 7, pH 7.0, Table 8, read-out: Solubility pH 7.0.
Where [9] appears, read: bistrispropane buffer, pH 7, pH 7.0, read-out: Solubility pH 7.0.
The mark [10] stands for this setting: bistrispropane buffer, pH 7.5, pH 7.5, read-out: Solubility pH 7.5.
[11] abbreviates: bistrispropane buffer, pH 8, pH 8.0, read-out: Solubility pH 8.0.
[12] abbreviates: glycylglycine buffer, pH 3, pH 3.0, read-out: Solubility pH 3.0.
Where [13] appears, read: glycylglycine buffer, pH 4, pH 4.0, 18 hours at room temperature, Table 2, read-out: Solubility pH 4.0.
[14] abbreviates: glycylglycine buffer, pH 4, pH 4.0, read-out: Solubility pH 4.0.
Where [15] appears, read: glycylglycine buffer, pH 5, pH 5.0, read-out: Solubility pH 5.0.

Structures are written as SMILES. Values after ≈ are worked out from the molar mass of the structure shown. Read-outs that look alike come from different tables or passages of the source. Starred links: 1 amine or outer side, 2 acyl side, 3 side chain; linkers in the order of their positions; H or OH if unused. Positions of bridges follow the written chain, without caps; N, C: chain ends. Residues, ends and D or L forms follow the SMILES beside them. Groups on a side chain read outwards from the residue. *: point of attachment. C20 diacid = O=C(O)CCCCCCCCCCCCCCCCCCC(=O)*; C18 diacid = O=C(O)CCCCCCCCCCCCCCCCC(=O)*; γGlu = O=C(O)[C@H](CCC(=O)[*:2])N[*:1]; AEEA = NCCOCCOCC(=O)O Some results are limits rather than exact numbers.

Consider `CC[C@H](C)[C@H](NC(=O)[C@H](CCCCNC(=O)COCCOCCNC(=O)COCCOCCNC(=O)CC[C@H](NC(=O)CCCCCCCCCCCCCCCCC(=O)O)C(=O)O)NC(=O)CNC(=O)[C@H](Cc1ccccc1)NC(=O)[C@H](CC(N)=O)NC(=O)[C@H](CC(N)=O)NC(=O)[C@H](CO)NC(=O)[C@H](CO)NC(=O)[C@H](Cc1c[nH]cn1)NC(=O)[C@H](Cc1c[nH]cn1)NC(=O)[C@H](CC(C)C)NC(=O)[C@H](Cc1ccccc1)NC(=O)[C@H](CCC(=O)O)NC(=O)[C@H](C)NC(=O)[C@H](CC(C)C)NC(=O)[C@H](CCCNC(=N)N)NC(=O)[C@H](CCC(N)=O)NC(=O)[C@@H](NC(=O)[C@H](C)NC(=O)[C@@H]1CSSC[C@H](NC(=O)[C@@H](N)CCCCN)C(=O)N[C@@H](CC(N)=O)C(=O)N[C@@H]([C@@H](C)O)C(=O)N[C@@H](C)C(=O)N[C@@H]([C@@H](C)O)C(=O)N1)[C@@H](C)O)C(=O)N[C@@H](CC(C)C)C(=O)N1CCC[C@H]1C(=O)N1CCC[C@H]1C(=O)N[C@H](C(=O)N[C@@H](CC(N)=O)C(=O)N[C@H](C(=O)NCC(=O)N[C@@H](CO)C(=O)N[C@@H](CC(N)=O)C(=O)N[C@H](C(=O)N[C@@H](Cc1ccc(O)cc1)C(N)=O)[C@@H](C)O)C(C)C)[C@@H](C)O` [Example 73, N-epsilon25-[2-(2-{2-[2-(2-{2-[(S)-4-Carboxy-4-(17-carboxyheptadecanoylamino)butyrylamino]ethoxy}ethoxy)acetylamino]ethoxy}ethoxy)acetyl]-[Glu14,His17,Lys25]-pramlintide] (H-KCNTATCATQRLAEFLHHSSNNFGK([AEEA-AEEA-γGlu-C18 diacid])ILPPTNVGSNTY-NH2; disulfide 2-7 (inferred); N-terminus and C-terminus assumed), for which the solubility at 18 h was over 200 µM in data set [1] (setting [5]); over 200 µM in data set [1] (setting [6]); 155 µM (≈ 736 µg/mL) in data set [1] (setting [7]); 155 µM (≈ 736 µg/mL) in data set [1] (setting [8]); 155 µM (≈ 736 µg/mL) in data set [1] (setting [9]); 169 µM (≈ 803 µg/mL) in data set [1] (setting [10]). Also, the solubility at 18 h in data set [1] (setting [11]), in data set [1] (setting [12]), in data set [1] (setting [13]), in data set [1] (setting [14]) and in data set [1] (setting [15]) was over 200 µM throughout. Moreover, the EC50 in data set [2] came out at 0.052 nM; in data set [3], 0.0385 nM; in data set [4], 0.045 nM.

Consider `CC[C@H](C)[C@H](NC(=O)[C@@H]1CCCN1C(=O)CNC(=O)[C@H](Cc1ccccc1)NC(=O)[C@H](CC(N)=O)NC(=O)[C@H](CC(N)=O)NC(=O)[C@H](CO)NC(=O)[C@H](CO)NC(=O)[C@H](Cc1c[nH]cn1)NC(=O)[C@H](Cc1c[nH]cn1)NC(=O)[C@H](CC(C)C)NC(=O)[C@H](Cc1ccccc1)NC(=O)[C@H](CCC(=O)O)NC(=O)[C@H](C)NC(=O)[C@H](CC(C)C)NC(=O)[C@H](CCCNC(=N)N)NC(=O)[C@H](CCC(N)=O)NC(=O)[C@@H](NC(=O)[C@H](C)NC(=O)[C@@H]1CSSC[C@H](NC(=O)[C@H](Cc2c[nH]cn2)NC(=O)CC[C@H](NC(=O)CCCCCCCCCCCCCCCCCCC(=O)O)C(=O)O)C(=O)N[C@@H](CC(N)=O)C(=O)N[C@@H]([C@@H](C)O)C(=O)N[C@@H](C)C(=O)N[C@@H]([C@@H](C)O)C(=O)N1)[C@@H](C)O)C(=O)N[C@@H](CC(C)C)C(=O)N1CCC[C@H]1C(=O)N1CCC[C@H]1C(=O)N[C@H](C(=O)N[C@@H](CC(N)=O)C(=O)N[C@H](C(=O)NCC(=O)N[C@@H](CO)C(=O)N[C@@H](CC(N)=O)C(=O)N[C@H](C(=O)N[C@@H](Cc1ccc(O)cc1)C(N)=O)[C@@H](C)O)C(C)C)[C@@H](C)O` [Example 18, N-alpha-[(S)-4-Carboxy-4-(19-carboxynonadecanoylamino)butyryl]-[His1,Glu14,His17]-pramlintide] ({C20 diacid-γGlu}-HCNTATCATQRLAEFLHHSSNNFGPILPPTNVGSNTY-NH2; disulfide 2-7 (inferred); C-terminus assumed), for which the solubility at 18 h is over 200 µM in data set [1] (setting [5]); 153 µM (≈ 683 µg/mL) in data set [1] (setting [6]); 191 µM (≈ 853 µg/mL) in data set [1] (setting [7]); 191 µM (≈ 853 µg/mL) in data set [1] (setting [9]); over 200 µM in data set [1] (setting [10]); over 200 µM in data set [1] (setting [11]). Moreover, the solubility at 18 h in data set [1] (setting [12]), in data set [1] (setting [13]), in data set [1] (setting [14]) and in data set [1] (setting [15]) was over 200 µM throughout. The EC50 in data set [2] is 0.187 nM; in data set [3], 0.131 nM; in data set [4] it was 0.126 nM.

On to `CC[C@H](C)[C@H](NC(=O)[C@@H]1CCCN1C(=O)CNC(=O)[C@H](Cc1ccccc1)NC(=O)[C@H](CC(N)=O)NC(=O)[C@H](CC(N)=O)NC(=O)[C@H](CO)NC(=O)[C@H](CO)NC(=O)[C@H](Cc1c[nH]cn1)NC(=O)[C@H](CCCNC(=N)N)NC(=O)[C@H](CC(C)C)NC(=O)[C@H](Cc1ccccc1)NC(=O)[C@H](CCC(=O)O)NC(=O)[C@H](C)NC(=O)[C@H](CC(C)C)NC(=O)[C@H](CCCNC(=N)N)NC(=O)[C@H](CCC(N)=O)NC(=O)[C@@H](NC(=O)[C@H](C)NC(=O)[C@@H]1CSSC[C@H](NC(=O)[C@H](Cc2c[nH]cn2)NC(=O)CC[C@H](NC(=O)CCCCCCCCCCCCCCCCCCC(=O)O)C(=O)O)C(=O)N[C@@H](CC(N)=O)C(=O)N[C@@H]([C@@H](C)O)C(=O)N[C@@H](C)C(=O)N[C@@H]([C@@H](C)O)C(=O)N1)[C@@H](C)O)C(=O)N[C@@H](CC(C)C)C(=O)N1CCC[C@H]1C(=O)N1CCC[C@H]1C(=O)N[C@H](C(=O)N[C@@H](CC(N)=O)C(=O)N[C@H](C(=O)NCC(=O)N[C@@H](CO)C(=O)N[C@@H](CC(N)=O)C(=O)N[C@H](C(=O)N1CCC[C@H]1C(N)=O)[C@@H](C)O)C(C)C)[C@@H](C)O` [Example 90, N-alpha-[(S)-4-Carboxy-4-(19-carboxynonadecanoylamino)butyryl]-[His1,Glu14,Arg17,Pro37]-pramlintide] ({C20 diacid-γGlu}-HCNTATCATQRLAEFLRHSSNNFGPILPPTNVGSNTP-NH2; disulfide 2-7 (inferred); C-terminus assumed), for which the solubility at 18 h was over 200 µM in data set [1] (setting [5]); over 200 µM in data set [1] (setting [6]); over 200 µM in data set [1] (setting [7]); over 200 µM in data set [1] (setting [8]); over 200 µM in data set [1] (bistrispropane buffer, pH 7, pH 7.0, Table 9, read-out: Solubility pH 7.0); over 200 µM in data set [1] (setting [9]). Also, the solubility at 18 h in data set [1] (bistrispropane buffer, pH 7.5, pH 7.5, Table 9, read-out: Solubility pH 7.5) was over 200 µM; in data set [1] (setting [10]), over 200 µM; in data set [1] (setting [11]) it was over 200 µM; in data set [1] (setting [12]), over 200 µM; in data set [1] (setting [13]), over 200 µM; in data set [1] (setting [14]) it was over 200 µM. Further, in data set [1] (setting [15]), the solubility at 18 h was over 200 µM. Besides, the EC50 in data set [2] was 0.217 nM; in data set [3] it was 0.0325 nM; in data set [4] it was 0.0475 nM.
